The results in this text go back to ChEMBL document CHEMBL1151124, “Photodiode Array Detection and Structures of Griseolic Acid Analogues from Culture Broth” (J Nat Prod, 1988).

The structures appear in SMILES notation. Calls of active or inactive are those of the source. No cut-off for these calls is given here.

The nature of the experiment: Inhibition of cAMP-specific 3',5'-cyclic phosphodiesterase.
For `Nc1ncnc2c1ncn2[C@@H]1OC2=C[C@](CC(=O)O)(C(=O)O)O[C@H]2[C@H]1O`, the result was Active. Regarding `Nc1ncnc2c1ncn2[C@@H]1O[C@H](C[C@@H](CC(=O)O)C(=O)O)[C@@H](O)[C@H]1O`, the outcome was inactive. As for `Nc1ncnc2c1ncn2[C@@H]1OC2=C[C@@](C(=O)O)(C(O)C(=O)O)O[C@H]2[C@H]1O` (some centres undefined), the entry is “Active”; as for `Nc1ncnc2c1ncn2[C@@H]1O[C@@H]2C[C@](CC(=O)O)(C(=O)O)O[C@H]2[C@H]1O`, “Active”.
